Assay results from US9155719B2, “N-acetyl-DL-leucine, neuroprotective and retinoprotective medicament” (priority 2010, dated 2015).

Assays:
Assay type in all cases: in vivo, human
[1] = test system: patients with Starpardt's Disease; experiment: Clinical observation, Stargardt's disease twin patients; details: eye drops; one of two twin patients
Protocol: The invention will be even further illustrated by the description of the clinical examples which follow and which, of course, are not limiting in nature. In these examples, the active ingredient, the N-acetyl-DL-leucine, was administered continuously (i.e., at least once a day) in oral or topical form, in an amount of 2 gr per day in the case of the oral form and 2% in the case of eye drops. Two twin patients treated with N-acetyl-DL-leucine in the form of eye drops noticed an improvement of their visual acuity by 1/10 for one of them, and by 2/10 to 3/10 for the […].

[2] = test system: patients with known glaucoma; experiment: Clinical observation, glaucomatous neuropathy or glaucoma
Protocol: The invention will be even further illustrated by the description of the clinical examples which follow and which, of course, are not limiting in nature. In these examples, the active ingredient, the N-acetyl-DL-leucine, was administered continuously (i.e., at least once a day) in oral or topical form, in an amount of 2 gr per day in the case of the oral form and 2% in the case of eye drops. Patients with known glaucoma experienced a decrease in their occular tension, and an improvement of their visual acuity and visual field in a very short time as soon as the treatment was administrated. […] IV) Ametropia.

[3] = test system: patients with presbyopia; experiment: Clinical observation, presbyopia; details: fourteen patients; eye drops
Protocol: (§1) The invention will be even further illustrated by the description of the clinical examples which follow and which, of course, are not limiting in nature. In these examples, the active ingredient, the N-acetyl-DL-leucine, was administered continuously (i.e., at least once a day) in oral or topical form, in an amount of 2 gr per day in the case of the oral form and 2% in the case of eye drops. More particularly, but not exclusively, it relates to eyedrops composed of N-acetyl-DL-leucine, which are intended for improving (i.e., in the present case, decreasing) the effects of presbyopia, myopia, hypermetropia and astigmatism, for stabilizing them or even for reversing the evolutive course thereof. • Myopia: seven patients were evaluated and received the N-acetyl-DL-leucine in the form of eye drops. • Result: in addition to the improvement of their visual acuity, the visual field, the refractive value was reduced. One can deduce therefrom that the N-acetyl-DL-leucine not only improves vision but also treats myopia. • Presbyopia: fourteen patients received the N-acetyl-DL-leucine in the form of eye drops and experienced an improvement of their near vision and a decrease in presbyopia. […]

[4] = test system: patients with visual difficulties at night (hemeralopia); experiment: Clinical observation, night vision (hemeralopia); details: all the patients with hemeralopia
Protocol: (§2) The invention will be even further illustrated by the description of the clinical examples which follow and which, of course, are not limiting in nature. In these examples, the active ingredient, the N-acetyl-DL-leucine, was administered continuously (i.e., at least once a day) in oral or topical form, in an amount of 2 gr per day in the case of the oral form and 2% in the case of eye drops.

[5] = test system: patients with myopia; experiment: Clinical observation, myopia; details: seven patients; eye drops
Protocol: as §1

[6] = test system: astigmatic subjects; experiment: Clinical observation, astigmatism; details: eye drops
Protocol: as §1

[7] = test system: patients with hypermetropia; experiment: Clinical observation, hypermetropia; details: eye drops
Protocol: as §1

[8] = test system: "normal" patients without ocular pathology (aging individuals); experiment: Clinical observation, age-related physiological vision decline / normal patients; details: in many cases; absence of any occular pathology
Protocol: as §2, with “drops. […] In many cases, N-acetyl-DL-leucine improved visual function (visual acuity, contrast vision and visual field) in the absence of any occular pathology.” for “drops.”

[9] = test system: patients with a macular degeneration; experiment: Clinical observation, age-related or myopia-related macular degeneration; details: eleven patients; eye drops or tablets
Protocol: The invention will be even further illustrated by the description of the clinical examples which follow and which, of course, are not limiting in nature. In these examples, the active ingredient, the N-acetyl-DL-leucine, was administered continuously (i.e., at least once a day) in oral or topical form, in an amount of 2 gr per day in the case of the oral form and 2% in the case of eye drops. Eleven patients with a macular degeneration which were treated with N-acetyl-DL-leucine (eye drops or tablets) noticed an improvement of their visual acuity.

[10] = test system: patients with Retinitis Pigmentosa; experiment: Clinical observation, retinitis pigmentosa patients; details: seven patients: three 1 gr 2 times per day oral, four 2% eye drops 3 times per day
Protocol: The invention will be even further illustrated by the description of the clinical examples which follow and which, of course, are not limiting in nature. In these examples, the active ingredient, the N-acetyl-DL-leucine, was administered continuously (i.e., at least once a day) in oral or topical form, in an amount of 2 gr per day in the case of the oral form and 2% in the case of eye drops. This disorder corresponds to a dystrophy in the photoreceptors (cones and rods). It is characterized by the appearance of night blindness in infancy or adolescence, progressive contractions of the equatorial annular peripheral visual filed and results in a substantial loss in visual acuity or even blindness by adulthood. The N-acetyl-DL-leucine was used and induced an improvement of visual function: Seven patients were treated: three of them received 1 gr 2 times per day via oral administration; and four of them were subjected to a topical administration (2% eye drops), 3 times per day. All of them noticed an improvement of their visual acuity and visual field.

`CC(=O)NC(CC(C)C)C(=O)O` (racemic) [N-acetyl-DL-leucine] was tested, and the “improvement of visual acuity” value [1] was 1/10, the occular tension ([2]; in a very short time as soon as the treatment was administrated) was “decrease” and the visual field ([2]; oral route or eye drops) was “regression of the deficiency”. The visual acuity ([2]; oral route or topical route (eye drops)) was “marked improvement”, the near vision [3] was “improvement” and the presbyopia [3] was “decrease”. The night vision [4] was “greatly improved”, the refractive value [5] was “reduced” and the visual acuity [5] was “improvement”. For the same compound, the visual field [5] was “improvement”, the visual acuity [6] was “improvement” and the “observations in hypermetropia (near vision, ametropia)” value [7] was “the same observations as for presbyopia”. For the same compound, the “visual function (visual acuity, contrast vision and visual field)” value [8] was “improved”, the visual acuity [9] was “improvement” and the visual acuity [10] was “improvement”. The visual field [10] was “improvement”.
